Experimental data: ChEMBL document CHEMBL3769318, “The Rational Design of Selective Benzoxazepin Inhibitors of the α-Isoform of Phosphoinositide 3-Kinase Culminating in the Identification of (S)-2-((2-(1-Isopropyl-1H-1,2,4-triazol-5-yl)-5,6-dihydrobenzo[f]imidazo[1,2-d][1,4]oxazepin-9-yl)oxy)propanamide (GDC-0326)” (J Med Chem, 2016)

Assays:
[1] = target: Phosphatidylinositol 4,5-bisphosphate 3-kinase catalytic subunit alpha isoform (Homo sapiens, UniProt P42336); assay: Inhibition of recombinant PI3K alpha (unknown origin) using PIP2 as substrate by fluorescence polarization assay; details: read-out: Ki(app)
[2] = Antiproliferative activity against human MCF7-neo/Her2 cells after 3 days by luminescence plate reader method; format: functional, cell-based; details: 72 h
[3] = Antiproliferative activity against human PC3 cells after 4 days by luminescence plate reader method; format: functional, cell-based; details: PC-3, 96 h

Chain of Phosphatidylinositol 4,5-bisphosphate 3-kinase catalytic subunit alpha isoform (P42336 whole entry, canonical isoform): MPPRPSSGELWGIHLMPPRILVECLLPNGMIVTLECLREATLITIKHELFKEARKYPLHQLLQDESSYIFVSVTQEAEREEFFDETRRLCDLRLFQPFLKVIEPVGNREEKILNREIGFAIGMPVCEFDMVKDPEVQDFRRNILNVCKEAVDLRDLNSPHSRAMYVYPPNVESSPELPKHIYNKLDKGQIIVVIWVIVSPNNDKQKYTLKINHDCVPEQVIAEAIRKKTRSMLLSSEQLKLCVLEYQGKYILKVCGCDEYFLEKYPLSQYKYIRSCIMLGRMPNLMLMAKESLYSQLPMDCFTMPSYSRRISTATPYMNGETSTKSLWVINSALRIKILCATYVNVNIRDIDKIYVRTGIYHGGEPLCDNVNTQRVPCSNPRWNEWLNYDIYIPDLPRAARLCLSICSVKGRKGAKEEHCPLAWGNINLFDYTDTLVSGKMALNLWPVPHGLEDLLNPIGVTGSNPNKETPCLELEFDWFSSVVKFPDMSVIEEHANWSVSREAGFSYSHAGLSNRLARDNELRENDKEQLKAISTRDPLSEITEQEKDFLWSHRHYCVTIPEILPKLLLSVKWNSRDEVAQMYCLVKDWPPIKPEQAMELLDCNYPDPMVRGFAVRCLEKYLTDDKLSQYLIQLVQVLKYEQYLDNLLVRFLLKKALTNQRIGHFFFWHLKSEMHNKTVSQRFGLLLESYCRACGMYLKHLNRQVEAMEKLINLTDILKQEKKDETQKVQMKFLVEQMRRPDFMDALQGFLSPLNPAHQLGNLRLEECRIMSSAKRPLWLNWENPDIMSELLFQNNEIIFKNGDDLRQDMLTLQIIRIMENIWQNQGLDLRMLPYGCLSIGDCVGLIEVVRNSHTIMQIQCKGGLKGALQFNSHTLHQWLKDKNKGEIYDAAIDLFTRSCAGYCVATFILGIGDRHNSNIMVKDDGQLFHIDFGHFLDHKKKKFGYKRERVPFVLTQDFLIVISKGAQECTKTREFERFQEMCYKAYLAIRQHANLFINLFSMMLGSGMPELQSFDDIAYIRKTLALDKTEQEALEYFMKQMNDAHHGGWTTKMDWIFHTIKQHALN

**Q.** With `CC(C)n1ncnc1-c1cn2c(n1)-c1ccc(N3CC[C@H]3C(N)=O)cc1OCC2` as the compound, how does the Ki [1] read?
**A.** 0.1 nM

**Q.** What about the EC50 [2] of the same compound?
**A.** 50 nM

**Q.** What about the EC50 [3] of the same compound?
**A.** 230 nM

**Q.** What does the source list for `CC(C)n1ncnc1-c1cn2c(n1)-c1ccc(N3CCCC[C@H]3C(N)=O)cc1OCC2`?
**A.** Ki [1]: 0.3 nM; EC50 [2]: 30 nM; EC50 [3]: 870 nM

**Q.** Which Ki [1] does the source give for `COc1cc2c(cn1)-c1nc(-c3ncnn3C(C)C)cn1CCO2` here?
**A.** 3.6 nM

**Q.** With `CC(C)n1ncnc1-c1cn2c(n1)-c1ccc(O[C@H](C)C(N)=O)cc1OCC2` as the compound, how does the EC50 [2] read?
**A.** 1000 nM

**Q.** What about the EC50 [3] of the same compound?
**A.** 4600 nM

**Q.** With `CC(C)n1ncnc1-c1cn2c(n1)-c1cnc(N(C)CC(N)=O)cc1OCC2` as the compound, how does the Ki [1] read?
**A.** 0.2 nM
